Experimental data as given in ChEMBL document CHEMBL4385621, “Synthesis and in vitro cytotoxicity evaluation of β-carboline-combretastatin carboxamides as apoptosis inducing agents: DNA intercalation and topoisomerase-II inhibition” (Bioorg Med Chem, 2019).
Activity calls are given as the source filed them. The calls are words filed in the database; no cut-off is given here.

How the values were obtained:
[1] = system: HeLa; experiment: Antiproliferative activity against human HeLa cells assessed as reduction in cell viability after 48 hrs by SRB assay; assay type: functional, cell-based
[2] = system: DU-145; experiment: Antiproliferative activity against human DU145 cells assessed as reduction in cell viability after 48 hrs by SRB assay; assay type: functional, cell-based; settings: DU-145, 48 h
[3] = system: A549; experiment: Antiproliferative activity against human A549 cells assessed as reduction in cell viability after 48 hrs by SRB assay; assay type: functional, cell-based; settings: A549, 48 h
[4] = system: A549; experiment: Cell cycle arrest in human A549 cells assessed as increase in accumulation of G2/M phase at 1 to 5 uM after 24 hrs by propidium iodide staining based flow cytometric analysis; assay type: functional
[5] = system: A549; experiment: Cell cycle arrest in human A549 cells assessed as reduction in G0/G1 phase at 1 to 5 uM after 24 hrs by propidium iodide staining based flow cytometric analysis; assay type: functional
[6] = molecular target: DNA topoisomerase II (Homo sapiens) (UniProt P11388+Q02880); experiment: Inhibition of human topoisomerase-2 assessed as reduction in decatenation of kDNA at 10 uM incubated for 30 mins by ethidium bromide staining based agarose gel electrophoresis method; assay type: protein assay
[7] = system: A549; experiment: Induction of apoptosis in human A549 cells assessed as reduction in cell viability at 1 to 5 uM after 24 hrs by phase contrast microscopic method; assay type: functional, cell-based
[8] = system: A549; experiment: Induction of apoptosis in human A549 cells assessed as cell shrinkage at 1 to 5 uM after 24 hrs by phase contrast microscopic method; assay type: functional, cell-based
[9] = system: A549; experiment: Induction of apoptosis in human A549 cells assessed as cell detachment from substratum at 1 to 5 uM after 24 hrs by phase contrast microscopic method; assay type: functional, cell-based
[10] = system: A549; experiment: Induction of apoptosis in human A549 cells assessed as nuclear fragmentation at 1 uM after 24 hrs by Hoechst […] staining based fluorescence microscopic method; assay type: functional, cell-based
[11] = system: A549; experiment: Induction of apoptosis in human A549 cells assessed as chromatin condensation at 1 uM after 24 hrs by Hoechst […] staining based fluorescence microscopic method; assay type: functional, cell-based
[12] = system: A549; experiment: Induction of apoptosis in human A549 cells assessed as increase in apoptotic nuclei at 3 to 5 uM after 24 hrs by Hoechst […] staining based fluorescence microscopic method; assay type: functional, cell-based
[13] = system: A549; experiment: Induction of apoptosis in human A549 cells assessed as increase in ROS generation at 1 to 5 uM after 24 hrs by Carboxy-DCFDA dye based fluorescence microscopic method; assay type: functional, cell-based
[14] = system: A549; experiment: Induction of apoptosis in human A549 cells assessed as viable cells at 1 uM after 24 hrs by Annexin V-FITC/propidium iodide staining based flow cytometry (reference value: 88.4%); assay type: functional; settings: A549, 24 h, read-out: Activity
[15] = system: A549; experiment: Induction of apoptosis in human A549 cells assessed as early apoptotic cells at 1 uM after 24 hrs by Annexin V-FITC/propidium iodide staining based flow cytometry (reference value: 11.2%); assay type: functional
[16] = system: A549; experiment: Induction of apoptosis in human A549 cells assessed as late apoptotic cells at 1 uM after 24 hrs by Annexin V-FITC/propidium iodide staining based flow cytometry (reference value: 0.4%); assay type: functional
[17] = system: A549; experiment: Induction of apoptosis in human A549 cells assessed as necrotic cells at 1 uM after 24 hrs by Annexin V-FITC/propidium iodide staining based flow cytometry (reference value: 0%); assay type: functional
[18] = system: A549; experiment: Induction of apoptosis in human A549 cells assessed as viable cells at 3 uM after 24 hrs by Annexin V-FITC/propidium iodide staining based flow cytometry (reference value: 88.4%); assay type: functional; settings: A549, 24 h, read-out: Activity
[19] = system: A549; experiment: Induction of apoptosis in human A549 cells assessed as early apoptotic cells at 3 uM after 24 hrs by Annexin V-FITC/propidium iodide staining based flow cytometry (reference value: 11.2%); assay type: functional
[20] = system: A549; experiment: Induction of apoptosis in human A549 cells assessed as late apoptotic cells at 3 uM after 24 hrs by Annexin V-FITC/propidium iodide staining based flow cytometry (reference value: 0.4%); assay type: functional
[21] = system: A549; experiment: Induction of apoptosis in human A549 cells assessed as necrotic cells at 3 uM after 24 hrs by Annexin V-FITC/propidium iodide staining based flow cytometry (reference value: 0%); assay type: functional
[22] = system: A549; experiment: Induction of apoptosis in human A549 cells assessed as viable cells at 5 uM after 24 hrs by Annexin V-FITC/propidium iodide staining based flow cytometry (reference value: 88.4%); assay type: functional; settings: A549, 24 h, read-out: Activity
[23] = system: A549; experiment: Induction of apoptosis in human A549 cells assessed as early apoptotic cells at 5 uM after 24 hrs by Annexin V-FITC/propidium iodide staining based flow cytometry (reference value: 11.2%); assay type: functional
[24] = system: A549; experiment: Induction of apoptosis in human A549 cells assessed as late apoptotic cells at 5 uM after 24 hrs by Annexin V-FITC/propidium iodide staining based flow cytometry (reference value: 0.4%); assay type: functional
[25] = system: A549; experiment: Induction of apoptosis in human A549 cells assessed as necrotic cells at 5 uM after 24 hrs by Annexin V-FITC/propidium iodide staining based flow cytometry (reference value: 0%); assay type: functional
[26] = system: Calf thymus DNA; experiment: Binding affinity to calf thymus DNA assessed as dissociation constant after 5 mins by UV-Visible spectroscopic method; assay type: nucleic-acid assay, Bos taurus
[27] = system: Calf thymus DNA; experiment: Binding affinity to calf thymus DNA assessed as decrease in emission peak intensity by spectrofluorimetric method; assay type: nucleic-acid assay; settings: Bos taurus
[28] = system: Calf thymus DNA; experiment: Stabilization of calf thymus DNA assessed as hyperchromicity at DNA to compound ratio of 1:1 by circular dichroism spectropolarimetric analysis; assay type: nucleic-acid assay; settings: Bos taurus
[29] = system: Calf thymus DNA; experiment: Binding affinity to calf thymus DNA assessed as decrease in emission peak intensity using varying DNA level by spectrofluorimetric method; assay type: nucleic-acid assay; settings: Bos taurus
[30] = system: Calf thymus DNA; experiment: Binding affinity to calf thymus DNA assessed as hypochromicity after 5 mins by UV-Vis absorption spectral analysis; assay type: nucleic-acid assay; settings: Bos taurus
[31] = system: Calf thymus DNA; experiment: Binding affinity to calf thymus DNA assessed as hypochromicity at DNA to compound ratio of 1:1 to 1:2 by circular dichroism analysis; assay type: nucleic-acid assay; settings: Bos taurus
[32] = system: Calf thymus DNA; experiment: Binding affinity to calf thymus DNA assessed as unwinding effect at DNA to compound ratio of 1:1 to 1:2 by circular dichroism analysis; assay type: nucleic-acid assay; settings: Bos taurus
[33] = system: Calf thymus DNA; experiment: Binding affinity to calf thymus DNA assessed as confirmational change at DNA to compound ratio of 1:1 to 1:2 by circular dichroism analysis; assay type: nucleic-acid assay; settings: Bos taurus
[34] = system: A549; experiment: Induction of apoptosis in human A549 cells after 24 hrs by Annexin V-FITC/propidium iodide staining based flow cytometry; assay type: functional, cell-based
[35] = system: Calf thymus DNA; experiment: Effect on calf thymus DNA stabilization assessed as increase in negative band intensity by circular dichroism spectropolarimetric analysis; assay type: nucleic-acid assay; settings: Bos taurus

- IC50 [1]: 9.97 µM
- IC50 [2]: 1.51 µM
- IC50 [3]: 1.01 µM
- inhibition [6]: Active
- Activity [27]: Active
- Activity [28]: Active
- Activity [29]: Active
- Activity [30]: Active
- Activity [31]: Active
- Activity [32]: Active
- Activity [33]: Active
- Activity [35]: Active
Structure (SMILES): COc1cc(/C(=C\c2ccc(C(F)(F)F)cc2)C(=O)NCc2cc3c([nH]c4ccccc43)c(-c3cccc(F)c3)n2)cc(OC)c1OC
- Activity [4]: Dose-dependent effect
- Activity [5]: Active
- Activity [7]: Active
- Activity [8]: Active
- Activity [9]: Active
- Activity [10]: Active
- Activity [11]: Active
- Activity [12]: Active
- Activity [13]: Active
- viability at 1 µM [14]: 69.7%
- Activity [15]: 20.4%
- Activity [16]: 6.8%
- Activity [17]: 3.2%
- viability at 3 µM [18]: 62.8%
- Activity [19]: 28.6%
- Activity [20]: 6.7%
- Activity [21]: 1.9%
- viability at 5 µM [22]: 59.3%
- Activity [23]: 33.4%
- Activity [24]: 4.9%
- Activity [25]: 2.4%
- Kd [26]: 71 µM
- Activity [34]: Dose-dependent effect
